Numbered stars: 1 amine (or outer) side, 2 acyl side, 3 side chain; on linkers, the order of the positions; unused ones are H or OH. Bridge positions count the residues as written; N and C are the ends. Square brackets hold non-standard residues; d marks the D form. Ends that are not written are not given here. Peptide text beside a SMILES is read from it. Abu(4-yl) = O=C([C@H](CC[*:3])N[*:1])[*:2]; Phg = N[C@H](C(=O)O)c1ccccc1; hCys = N[C@@H](CCS)C(=O)O; Orn = NCCC[C@H](N)C(=O)O; ATU = not defined here; Aib = CC(C)(N)C(=O)O
Tests used:
[1] = molecular target: ACA-6501; test: Competitive binding peptide ACA ELISA, cardiolipin/β2-GPI-coated plates; set-up: species or system human; conditions: for with ACA 6501 150 ug/mL: Optimization of Peptide 3G3, inf = no 50% inhibition; for IC50 Values, ACA-6501: cyclic thioether analogs
Experimental: (§1) A variation of this assay uses microtitration plates coated with human β2-glycoprotein I/cardiolipin (β2-GPI/CL) instead of tetravalent peptide and tests the ability of monomeric peptides to block the binding of aPL antibody to the epitope(s) on β2-GPI/CL. In this assay, IgG-depleted human serum at an optimized concentration is used as a source of β2-GPI. The monomeric peptides at several concentrations are incubated with an optimized concentration of aPL antibody in a manner analogous to the assay which employs tetravalent peptide as a plate substrate. Following the incubation of aPL/peptide in (β2-GPI/CL) plates, antibody binding and the peptide concentration required for 50% inhibition is determined at half-maximal absorbance as in the tetravalent assay.
(§2) Peptide sequences for all five peptides immediately follow the table. All were tested using the competitive binding peptide ACA ELISA using CL/β2-GPI plates as described herein.
(§3) (B) Immulon I® 96-well, flat-bottom, polystyrene microtitration plates (Dynatech Laboratories, Inc., Chantilly, Va.) were coated with 30 μL/well of cardiolipin (CL, 50 μg; Sigma Chemical Co., St. Louis, Mo.) in ethanol. Two control wells received 30 μL ethanol only. After overnight evaporation at 4° C., each well was blocked with 200 μL of 5% (w/v) fish gelatin in PBS for 2 hours at RT.
During this incubation, variable amounts of each of six peptides were mixed with 22 μL ACA-6501 serum diluted with 3% fish gelatin in 1:1 TBS/PBS (final dilution of 1:400) in a final volume of 220 μL using Eppendorf microcentrifuge tubes. Specifically, in tube #1 were mixed 181.3 μL of 3% fish gelatin in TBS-PBS, 16.7 μL of peptide stock solution plus 22 μL of ACA-6501 serum diluted 40 times in 3% fish gelatin/TBS-PBS. Stock solutions ranged from 450-800 μg/mL for peptides #951 (diserine non-cyclized negative control), #952 (a lot of LJP 690), and thioethers CCTE-3G3, CHTE-3G3, HCTE-3G3 and HHTE-3G3. To tube #2 the following were added: 148 μL fish gelatin/TBS-PBS, […] of peptide stock solution, plus 22 μL of 40 times diluted ACA-6501 serum. Tube #3 contained 48 μL fish gelatin/TBS-PBS, […] of peptide stock solution, plus 22 μL of 40 times diluted ACA-6501 serum. The control tube #4 received 396 μL fish gelatin/TBS-PBS and 44 μL of 40 times diluted ACA-6501 serum (no peptide). Each of the tubes incubated for approximately 1 hour at RT.
(§4) The CL/β2-GPI microtitration plate was washed 5 times with TBS and 100 μL aliquots in duplicate from Eppendorf tubes #1, 2, 3, and 4 containing the antibody-peptide (or no peptide mixtures) were added to the wells. A volume of 100 μL from tube #4 was added to the duplicate control wells containing no cardiolipin. The microtitration plate was incubated for 1 hour at RT with agitation at 40 rpm in an orbital shaker (American Scientific, Rotator V), washed 5 times with TBS and then 100 μL of 1:1000 goat anti-human IgG alkaline phosphatase conjugate (Zymed, Cat No. 62-8422) in 0.5% (w/v) BSA-TBS was added. Following incubation for 1 hour at RT, the microtitration plate was again washed 5 times with TBS and the colorimetric enzyme detection developed by adding 100 μL of PMPP solution (7.8 g phenolphthalein monophosphate plus 69.5 g of 2-amino-2-methyl-1-propanol in 100 mL water stock solution diluted 1:26 with water). After 21 minutes, the reaction was stopped by adding 50 μL of 0.2 M Na2HPO4 (Mallinckrodt) to each well. Absorbance at 550 nm was read in a microplate reader (Bio-Tek Instruments, Model EL 311). The amount of peptide that inhibited ACA-6501 binding by 50%, the IC50, was calculated from the graph at the intersection of half-maximal absorbance with amount of peptide added.

[2] = molecular target: ACA-6701; test: as above; set-up: species or system human; conditions: cyclic thioether analogs
Experimental: as §1, §2, §3, §4

Compound	with ACA 6501 150 ug/mL [1]	IC50 Values, ACA-6501 [1] [μg/0.1 mL]	IC50 Values, ACA-6701 [2] [μg/0.1 mL]
CC(C)C[C@@H]1NC(=O)[C@H](CCCCN)NC(=O)CNC(=O)[C@H](CC(C)C)NC(=O)[C@H](C(C)C)NC(=O)CNC(=O)[C@H](CC(C)C)NC(=O)[C@@H](N)CSCC[C@@H](C(=O)O)NC1=O [LJP 702] (H-CLGVLGKL[Abu(4-yl)]-OH; thioether 1-9; N-terminus and C-terminus assumed)	92 µg/mL	9.2	3.2
CC(C)C[C@@H]1NC(=O)[C@H](C(C)C)NC(=O)CNC(=O)[C@H](CC(C)C)NC(=O)[C@@H](N)CSSC[C@@H](C(=O)O)NC(=O)[C@H](CC(C)C)NC(=O)[C@@H](CCCCN)NC(=O)CNC1=O [C L G V L G dK L C] (H-CLGVLG[dK]LC-OH; disulfide 1-9)	170 µg/mL	–	–
CLGVGGKLC [C L G V G G K L C]	inf	–	–
CC(C)C[C@@H]1NC(=O)[C@H](CCCN)NC(=O)CNC(=O)[C@H](CC(C)C)NC(=O)[C@H](C(C)C)NC(=O)CNC(=O)[C@H](CC(C)C)NC(=O)[C@@H](N)CSSC[C@@H](C(=O)O)NC1=O [C L G V L G Or L C] (H-CLGVLG[Orn]LC-OH; disulfide 1-9)	40 µg/mL	–	–
CC(C)C[C@@H]1NC(=O)[C@H](CCCCN)NC(=O)C(C)(C)NC(=O)[C@H](CC(C)C)NC(=O)[C@H](C(C)C)NC(=O)CNC(=O)[C@H](CC(C)C)NC(=O)[C@@H](N)CSSC[C@@H](C(=O)O)NC1=O [C L G V L aiB K L C] (H-CLGVL[Aib]KLC-OH; disulfide 1-9)	110 µg/mL	–	–
CC(C)C[C@@H]1NC(=O)[C@H](CCCCN)NC(=O)CNC(=O)[C@H](CC(C)C)NC(=O)[C@H](C(C)C)NC(=O)CNC(=O)[C@@H]2CCCN2C(=O)[C@@H](N)CSSC[C@@H](C(=O)O)NC1=O [C P G V L G K L C] (H-CPGVLGKLC-OH; disulfide 1-9)	160 µg/mL	–	–
CC(C)C[C@@H]1NC(=O)[C@H](CCCCN)NC(=O)CNC(=O)[C@H](CC(C)C)NC(=O)[C@H](C(C)C)NC(=O)C(C)(C)NC(=O)[C@H](CC(C)C)NC(=O)[C@@H](N)CSSC[C@@H](C(=O)O)NC1=O [C L aiB V L G K L C] (H-CL[Aib]VLGKLC-OH; disulfide 1-9)	80 µg/mL	–	–
CC(C)C[C@@H]1NC(=O)[C@H](C(C)C)NC(=O)CNC(=O)[C@H](CC(C)C)NC(=O)[C@@H](N)CSSC[C@@H](C(=O)O)NC(=O)[C@H](c2ccccc2)NC(=O)[C@H](CCCCN)NC(=O)CNC1=O [C L G V L G K pG C] (H-CLGVLGK[Phg]C-OH; disulfide 1-9)	80 µg/mL	–	–
CC(C)C[C@@H]1NC(=O)[C@@H](NC(=O)[C@@H]2CCCN2)CSSC[C@@H](C(=O)N2CCC[C@H]2C(=O)NCC(=O)O)NC(=O)[C@H](CC(C)C)NC(=O)[C@H](CCCCN)NC(=O)CNC(=O)[C@H](CC(C)C)NC(=O)[C@H](C(C)C)NC(=O)CNC1=O [P C L G V L G K L C P G] (H-PCLGVLGKLCPG-OH; disulfide 2-10)	420 µg/mL	–	–
CC(C)C[C@@H]1NC(=O)[C@@H](NC(=O)[C@H]2CCCN2)CSSC[C@@H](C(=O)O)NC(=O)[C@H](CC(C)C)NC(=O)[C@H](CCCCN)NC(=O)CNC(=O)[C@H](CC(C)C)NC(=O)[C@H](C(C)C)NC(=O)CNC1=O [dP C L G V L G K L C] (H-[dP]CLGVLGKLC-OH; disulfide 2-10)	120 µg/mL	–	–
CLGVPGKLC [C L G V P G K L C]	Inf.	–	–
CC(C)C[C@@H]1NC(=O)[C@H](CCCCN)NC(=O)[C@@H]2CCCN2C(=O)[C@H](CC(C)C)NC(=O)[C@H](C(C)C)NC(=O)CNC(=O)[C@H](CC(C)C)NC(=O)[C@@H](N)CSSC[C@@H](C(=O)O)NC1=O [C L G V L P K L C] (H-CLGVLPKLC-OH; disulfide 1-9)	350 µg/mL	–	–
CC(C)C[C@@H]1NC(=O)[C@H](CCCCN)NC(=O)CNC(=O)[C@H](CC(C)C)NC(=O)[C@H](C(C)C)NC(=O)CNC(=O)[C@H](CC(C)C)NC(=O)[C@@H](N)CCSCC[C@@H](C(=O)O)NC1=O [LJP 703] (H-[hCys]LGVLGKL[Abu(4-yl)]-OH; thioether 1-9; N-terminus and C-terminus assumed)	80 µg/mL	8.0	3.6
CC(C)C[C@@H]1NC(=O)[C@H](C(C)C)NC(=O)CNC(=O)[C@H](CC(C)C)NC(=O)[C@@H](N)CSSC[C@@H](C(=O)O)NC(=O)C(C)(C)NC(=O)[C@H](CCCCN)NC(=O)CNC1=O [C L G V L G K aiB C] (H-CLGVLGK[Aib]C-OH; disulfide 1-9)	>470 µg/mL	–	–
CC(C)C[C@@H]1NC(=O)[C@H](CCCCN)NC(=O)CNC(=O)[C@H](CC(C)C)NC(=O)[C@H](C(C)C)NC(=O)CNC(=O)[C@H](C(C)C)NC(=O)[C@@H](N)CSSC[C@@H](C(=O)O)NC1=O [C V G V L G K L C] (H-CVGVLGKLC-OH; disulfide 1-9)	130 µg/mL	–	–
CLGVLCKLC [C L G V L C K L C]	500 µg/mL	–	–
CC(C)C[C@@H]1NC(=O)[C@H](CCCCN)NC(=O)CNC(=O)[C@H](CC(C)C)NC(=O)[C@H](C(C)C)NC(=O)CNC(=O)[C@H](CC(C)C)NC(=O)[C@@H](N)CSSC[C@@H](C(=O)N2CCC[C@H]2C(=O)NCC(=O)O)NC1=O [C L G V L G K L C P G] (H-CLGVLGKLCPG-OH; disulfide 1-9)	460 µg/mL	–	–
CC(C)C[C@@H]1NC(=O)[C@H](CCCCN)NC(=O)CNC(=O)[C@H](CC(C)C)NC(=O)[C@H](C(C)C)NC(=O)CNC(=O)[C@H](CC(C)C)NC(=O)[C@@H](N)CSC[C@@H](C(=O)O)NC1=O [LJP 698]	–	11.0	5.0
CC(C)C[C@@H]1NC(=O)[C@H](C(C)C)NC(=O)CNC(=O)[C@H](CC(C)C)NC(=O)[C@@H](N)CSSC[C@@H](C(=O)O)NC(=O)[C@H](C)NC(=O)[C@H](CCCCN)NC(=O)CNC1=O [C L G V L G K A C] (H-CLGVLGKAC-OH; disulfide 1-9)	360 µg/mL	–	–
CC(C)C[C@@H]1NC(=O)[C@H](CCCCN)NC(=O)CNC(=O)[C@H](CC(C)C)NC(=O)C(C)(C)NC(=O)CNC(=O)[C@H](CC(C)C)NC(=O)[C@@H](N)CSSC[C@@H](C(=O)O)NC1=O [C L G aiB L G K L C] (H-CLG[Aib]LGKLC-OH; disulfide 1-9)	110 µg/mL	–	–
Y ATU C L G V L G K L C ({Tyr-ATU}-CLGVLGKLC; cysteine pairing not given here; reading uncertain)	170 µg/mL	–	–
CC(C)C[C@@H]1NC(=O)[C@H](C)NC(=O)CNC(=O)[C@H](CC(C)C)NC(=O)[C@@H](N)CSSC[C@@H](C(=O)O)NC(=O)[C@H](CC(C)C)NC(=O)[C@H](CCCCN)NC(=O)CNC1=O [C L G A L G K L C] (H-CLGALGKLC-OH; disulfide 1-9)	260 µg/mL	–	–
CC(C)C[C@@H]1NC(=O)[C@H](CCCCN)NC(=O)CNC(=O)[C@H](CC(C)C)NC(=O)[C@@H]2CCCN2C(=O)CNC(=O)[C@H](CC(C)C)NC(=O)[C@@H](N)CSSC[C@@H](C(=O)O)NC1=O [C L G P L G K L C] (H-CLGPLGKLC-OH; disulfide 1-9)	180 µg/mL	–	–
